The values that follow come from ChEMBL document CHEMBL1909576, “Continued exploration of biphenylsulfonamide scaffold as a platform for aggrecanase-1 inhibition” (Bioorg Med Chem Lett, 2011).

Experiment [1] addresses T1, A disintegrin and metalloproteinase with thrombospondin motifs 4 (Homo sapiens, UniProt O75173).
T1 sequence (O75173 whole entry): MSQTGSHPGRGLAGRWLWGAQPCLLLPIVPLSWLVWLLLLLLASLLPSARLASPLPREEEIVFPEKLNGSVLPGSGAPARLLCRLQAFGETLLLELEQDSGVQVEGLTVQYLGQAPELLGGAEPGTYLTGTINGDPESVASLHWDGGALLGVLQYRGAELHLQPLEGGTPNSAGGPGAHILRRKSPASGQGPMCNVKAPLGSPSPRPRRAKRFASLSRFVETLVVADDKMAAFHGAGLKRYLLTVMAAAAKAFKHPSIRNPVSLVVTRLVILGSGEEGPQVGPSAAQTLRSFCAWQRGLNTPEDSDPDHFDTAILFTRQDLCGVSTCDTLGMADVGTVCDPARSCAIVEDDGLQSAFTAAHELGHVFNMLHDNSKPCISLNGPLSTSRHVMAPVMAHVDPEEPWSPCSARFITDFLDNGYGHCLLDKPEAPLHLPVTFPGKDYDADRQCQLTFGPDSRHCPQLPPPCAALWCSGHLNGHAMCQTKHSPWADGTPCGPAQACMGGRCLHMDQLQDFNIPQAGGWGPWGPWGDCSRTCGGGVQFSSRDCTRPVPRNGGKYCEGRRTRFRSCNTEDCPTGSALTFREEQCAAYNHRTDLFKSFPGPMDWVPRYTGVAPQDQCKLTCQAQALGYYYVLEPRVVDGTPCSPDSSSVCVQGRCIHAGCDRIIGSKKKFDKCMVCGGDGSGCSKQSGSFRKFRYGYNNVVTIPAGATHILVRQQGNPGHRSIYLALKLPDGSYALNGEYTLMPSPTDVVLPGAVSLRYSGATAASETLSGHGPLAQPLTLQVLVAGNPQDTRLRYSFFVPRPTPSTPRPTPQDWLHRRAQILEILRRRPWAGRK
The experiment in a line: Inhibition of aggrecanase-1.

For the next experiment, the target named is Collagenase 3 (Homo sapiens, UniProt P45452). The experiment in a line: Inhibition of MMP13.

Usually IC50 stands for the midpoint of a concentration-inhibition curve. Read a low IC50 as greater potency in that assay. With `CC(C)[C@@H](NS(=O)(=O)c1ccc(-c2ccc(OCc3cccc([N+](=O)[O-])c3)cc2)cc1)C(=O)O`, the IC50 in experiment [1] is 0.54 µM; at Collagenase 3, 0.0014 µM.
Consider `CC(C)[C@@H](NS(=O)(=O)c1ccc(-c2ccc(OCc3ccccc3)cc2)cc1)C(=O)O`, for which the IC50 at Collagenase 3 was determined as 0.0056 µM.
Consider `CC(C)[C@@H](NS(=O)(=O)c1ccc(-c2ccc(OC(N)=O)cc2)cc1)C(=O)O`, for which, in experiment [1], the IC50 came to 4.1 µM.
Same read-out and setting: as for `CC(=O)Nc1ccc(-c2ccc(S(=O)(=O)N[C@@H](C(=O)O)C(C)C)cc2)cc1`, the figure is 100 µM.
As for `CC(Oc1ccc(-c2ccc(S(=O)(=O)N[C@@H](C(=O)O)C(C)C)cc2)cc1)c1cccc(C(F)(F)F)c1` (some centres not stated), the IC50 in experiment [1] amounted to 2.7 µM; on Collagenase 3, 0.012 µM.
As for `Cc1cc(COc2ccc(-c3ccc(S(=O)(=O)N[C@@H](C(=O)O)C(C)C)cc3)cc2)ccn1`, the IC50 in experiment [1] came to 2.4 µM; on Collagenase 3, 0.0007 µM.
The like results for `CC(C)[C@@H](NS(=O)(=O)c1ccc(-c2ccc(OCc3ccc(C#N)cc3)cc2)cc1)C(=O)O` were, in that order, 1.4 µM and 0.0001 µM.
The like results for `CC(C)[C@@H](NS(=O)(=O)c1ccc(-c2ccc(OCc3ccnc(C(F)(F)F)c3)cc2)cc1)C(=O)O` were, in that order, 2.2 µM and 0.001 µM.
Regarding `CC(C)[C@@H](NS(=O)(=O)c1ccc(-c2ccc(OCc3ccncc3)cc2)cc1)C(=O)O`, the 50% inhibitory concentration (IC50) was determined as 8.5 µM in experiment [1] and 0.0011 µM against Collagenase 3.
On Collagenase 3, `Cc1cc(COc2ccc(-c3ccc(S(=O)(=O)N[C@@H](C(=O)O)C(C)C)cc3)cc2)c2ccccc2n1` returned an IC50 of 0.0096 µM.
The molecule `CC(C)[C@@H](NS(=O)(=O)c1ccc(-c2ccc(CNC(=O)c3ccccc3)cc2)cc1)C(=O)O` yielded an IC50 in experiment [1] of 100 µM.
On Collagenase 3, `CC(C)[C@@H](NS(=O)(=O)c1ccc(-c2ccc(OCc3ccc4ccccc4c3)cc2)cc1)C(=O)O` came in with an IC50 of 0.0014 µM.
Consider `CC(C)[C@@H](NS(=O)(=O)c1ccc(-c2ccc(OCc3cccnc3)cc2)cc1)C(=O)O`, for which, in experiment [1], the IC50 was 30 µM.
The same measure, in the same setting: next, `CC(C)[C@@H](NS(=O)(=O)c1ccc(-c2ccc(OS(=O)(=O)c3ccccc3)cc2)cc1)C(=O)O`: 8.2 µM.
Turning to `CC(C)[C@@H](NS(=O)(=O)c1ccc(-c2ccc(OCc3cccc(Br)c3)cc2)cc1)C(=O)O`, the IC50 in experiment [1] was found to be 0.42 µM; against Collagenase 3, 1.6 µM.
`CC(C)[C@@H](NS(=O)(=O)c1ccc(-c2ccc(OC(=O)NCc3ccccc3)cc2)cc1)C(=O)O` came in with an IC50 in experiment [1] of 25 µM.
For `CC(C)[C@@H](NS(=O)(=O)c1ccc(-c2ccc(OCc3cccc(C(F)(F)F)n3)cc2)cc1)C(=O)O`, the IC50 turned out to be 4.7 µM in experiment [1] and 4.3 µM at Collagenase 3.
Turning to `CC(C)[C@@H](NS(=O)(=O)c1ccc(-c2ccc(CO)cc2)cc1)C(=O)O`, in experiment [1], the IC50 is 15 µM.
In turn, `CC(C)[C@@H](NS(=O)(=O)c1ccc(-c2ccc(OC(=O)Nc3ccccc3)cc2)cc1)C(=O)O` returned an IC50 in experiment [1] of 5.6 µM.
For `CC(C)[C@@H](NS(=O)(=O)c1ccc(-c2ccc(OCc3cccc(C(=O)O)c3)cc2)cc1)C(=O)O`, the values for the IC50 (in experiment [1]; at Collagenase 3) were 22 µM and 0.0027 µM, respectively.
Turning to `CC(C)[C@@H](NS(=O)(=O)c1ccc(-c2ccc(OCc3ccc4ccccc4n3)cc2)cc1)C(=O)O`, the IC50 in experiment [1] worked out at 10.6 µM.
`CC(C)[C@@H](NS(=O)(=O)c1ccc(-c2ccc(Oc3ccccc3)cc2)cc1)C(=O)O` came in with an IC50 in experiment [1] of 13.2 µM.
`CC(=O)N(C)Cc1ccc(-c2ccc(S(=O)(=O)N[C@@H](C(=O)O)C(C)C)cc2)cc1` showed an IC50 in experiment [1] of more than 200 µM.
`COC(=O)c1cccc(COc2ccc(-c3ccc(S(=O)(=O)N[C@@H](C(=O)O)C(C)C)cc3)cc2)c1`: the IC50 in experiment [1] amounted to 0.76 µM; on Collagenase 3 it was 0.0026 µM.
The like results for `CC(C)[C@@H](NS(=O)(=O)c1ccc(-c2ccc(OCc3cccc4ccccc34)cc2)cc1)C(=O)O` were, in that order, 1.4 µM and 0.0071 µM.
The like results for `CC(C)[C@@H](NS(=O)(=O)c1ccc(-c2ccc(OCc3ccccc3C(F)(F)F)cc2)cc1)C(=O)O` were, in that order, 9.1 µM and 24.7 µM.
Molecule `CC(C)[C@@H](NS(=O)(=O)c1ccc(-c2cccc(CN)c2)cc1)C(=O)O` had an IC50 in experiment [1] of 7.2 µM.
The same measure, in the same setting: as for `CC(C)[C@@H](NS(=O)(=O)c1ccc(-c2cccc(C#N)c2)cc1)C(=O)O`, the figure is 40 µM; as for `CC(C)[C@@H](NS(=O)(=O)c1ccc(-c2ccc(OCc3ccccn3)cc2)cc1)C(=O)O`, 33 µM; as for `CC(C)[C@@H](NS(=O)(=O)c1ccc(-c2cccc(CO)c2)cc1)C(=O)O`, 2.1 µM.
Consider `CC(C)[C@@H](NS(=O)(=O)c1ccc(-c2ccc(OCc3ccc(C(F)(F)F)cc3)cc2)cc1)C(=O)O`, for which the IC50 in experiment [1] was 1.9 µM; on Collagenase 3, 0.002 µM.
The like results for `CC(C)[C@@H](NS(=O)(=O)c1ccc(-c2ccc(OCc3cccc(O)c3)cc2)cc1)C(=O)O` were, in that order, 3.7 µM and 4 µM.
Molecule `CC(=O)Nc1cccc(-c2ccc(S(=O)(=O)N[C@@H](C(=O)O)C(C)C)cc2)c1` displayed an IC50 in experiment [1] of 20 µM.
Same read-out and setting: as for `CC(C)[C@@H](NS(=O)(=O)c1ccc(-c2ccc(OCC3CCCCC3)cc2)cc1)C(=O)O`, the figure is more than 75 µM.
With `CC(C)[C@@H](NS(=O)(=O)c1ccc(-c2ccc(OCc3ccnc4ccccc34)cc2)cc1)C(=O)O`, the IC50 stood at 1 µM in experiment [1] and 0.0052 µM against Collagenase 3.
Regarding `CC(C)[C@@H](NS(=O)(=O)c1ccc(-c2ccc(OCc3cccc(F)c3)cc2)cc1)C(=O)O`, the IC50 in experiment [1] stood at 2.6 µM; against Collagenase 3, 0.0022 µM.
For `CC(C)[C@@H](NS(=O)(=O)c1ccc(-c2ccc(OCc3cccc(Cl)c3)cc2)cc1)C(=O)O`, the IC50 in experiment [1] was found to be 0.4 µM; against Collagenase 3, 0.0014 µM.
In experiment [1], `CC(C)[C@@H](NS(=O)(=O)c1ccc(-c2cccc(C(N)=O)c2)cc1)C(=O)O` yielded an IC50 of 8.4 µM.
Same read-out and setting: as for `CC(=O)NCc1cccc(-c2ccc(S(=O)(=O)N[C@@H](C(=O)O)C(C)C)cc2)c1`, the figure is more than 200 µM; as for `CNC(=O)Oc1ccc(-c2ccc(S(=O)(=O)N[C@@H](C(=O)O)C(C)C)cc2)cc1`, 50 µM.
